Data on 1 compound can be found in US20220168304A1, “METHODS FOR TREATING CYSTIC FIBROSIS” (CHILDREN'S HOSPITAL MEDICAL CENTER, priority 2017, published 2022).

One test deals with human duodenal organoids. The experiment in a line: Fluid secretion by forskolin-induced swelling (FIS) of human duodenal organoids. It counts as cell-based. Conditions: FIG. 3; 0.1 micromolar saracatinib; forskolin 10 μM, 120 min; FSK vs no FSK significant, p value of 0.01. The procedure:
(§1) Mouse intestinal organoids were cultured as described previously (DALTON et al., “New model of cystic fibrosis transmembrane conductance regulator proposes active channel-lik ? Inf Model (2012) Vol. 52, pp. 1842-1853). Human duodenal crypt isolation and enteroid expansion was performed as described previously (<<https://www.jove.com/video/52483/establishment-human-epithelial-enteroids-colonoids-from-whole-tissue>>) with some adaptations. Briefly, fresh biopsy is rinsed in ice-cold Dulbecco's Phosphate buffered saline without Ca^2+ and Mg^2+ (DPBS, Gibco), mounted and immersed in DPBS in a silica gel coated petri-dish using minutien pins with the mucosal side facing up.
Mucosa is gently scraped with curved forceps to remove villi and debris followed by 3-4 washes with DPBS. Crypts were dissociated using 2 mM EDTA (30 min, 4° C. with gentle shaking) followed by gentle scraping of the mucosa. The crypt suspension was filtered through a 150 μm nylon mesh twice and pelleted at 50×g, 4° C. The crypt pellet was resuspended in matrigel matrix (200 to 500 crypts/50 μl matrigel per well of a 24 well plate). […]
Fluid Secretion by forskolin-induced swelling (FIS) of human duodenal organoids (A) representative images (bar=20 micrometers) and (B) quantitation of fluid secretion.

Test [1] concerns mouse intestinal organoids. The experiment in a line: Fluid secretion by forskolin-induced swelling (FIS) of mouse intestinal organoids. Type of test: cell-based. Conditions: FIG. 4; 0.1 micromolar saracatinib; forskolin 10 μM, 30 min; FSK vs no FSK significant, p value of 0.01. The procedure: as §1
Isolation of intestinal spheres and measurement of fluid secretion were performed as described previously (MOON et al., “Compartmentalized accumulation of cAMP near complexes of multidrug resistance protein 4 (MRP4) and cystic fibrosis transmembrane conductance regulator (CFTR) contributes to drug-induced diarrhea.” J Biol Chem (2015) Vol. 290, pp. 11246-11257). Day 1-4 intestinal organoids were treated with 0.1-10 μM of the test compound for 24 h before stimulation of CFTR function using forskolin (10 μM). […]
Fluid Secretion by forskolin-induced swelling (FIS) of mouse intestinal organoids (A) representative images (bar=20 micrometers) and (B) quantitation of fluid secretion.

`CN1CCN(CCOc2cc(OC3CCOCC3)c3c(Nc4c(Cl)ccc5c4OCO5)ncnc3c2)CC1` [saracatinib, N-(5-chloro-1,3-benzodioxol-4-yl)-7-[2-(4-methyl-1-piperazinyl)ethoxy]-5-[(tetrahydro-2H-pyran-4-yl)oxy]-4-quinazolinamine]: the “Fluid secretion (forskolin-induced swelling, FIS)” value (in the test with human duodenal organoids; in test [1]) was “fluid secretion occurs when saracatinib is added” throughout.
